From ChEMBL document CHEMBL1255427, “Lack of a clinically relevant effect of an antacid on the pharmacokinetics of lersivirine” (Antimicrob Agents Chemother, 2010) come the findings set out here.

The nature of data set [1]: Tmax in healthy human plasma at 750 mg by HPLC-tandem mass spectrometry method. Type of data set: ADME, organism-based.
The species entered for data set [2] is Homo sapiens. The data set can be described thus: Toxicity in healthy human assessed as gastrointestinal tract related toxicity at 750 mg. Type of data set: organism-based. Particulars: in vivo.
The subject of data set [3] is Homo sapiens. Briefly: Plasma concentration in healthy human plasma at 750 mg coadministered with 20 ml of antacid by HPLC-tandem mass spectrometry method. It counts as ADME, organism-based. Particulars: in vivo.
The species named for data set [4] is Homo sapiens. The data set can be described thus: Toxicity in healthy human assessed as serious adverse events at 750 mg. It counts as organism-based. Particulars: in vivo.
Data set [5] is described as follows: Half life in healthy human plasma at 750 mg by HPLC-tandem mass spectrometry method. It counts as ADME, organism-based.
A short description of data set [6]: Half life in healthy human plasma at 750 mg coadministered with 20 ml of antacid by HPLC-tandem mass spectrometry method. Type of data set: ADME, organism-based.
Data set [7] is filed under the species Homo sapiens. Briefly: Toxicity in healthy human assessed as death at 750 mg. It counts as organism-based. Particulars: in vivo.
The nature of data set [8]: Cmax in healthy human plasma at 750 mg after 24 hrs by HPLC-tandem mass spectrometry method. It counts as ADME, organism-based. Further details: dose 750 mg.
Data set [9] is described as follows: AUC (infinity) in healthy human plasma at 750 mg by HPLC-tandem mass spectrometry method. It counts as ADME, organism-based. Further details: dose 750 mg, time infinity.
For data set [10], the system named is Homo sapiens. Briefly: Toxicity in healthy human assessed as death at 750 mg coadministered with 20 ml of antacid. It counts as organism-based. Particulars: in vivo.
Data set [11] is described as follows: Tmax in healthy human plasma at 750 mg coadministered with 20 ml of antacid by HPLC-tandem mass spectrometry method. Type of data set: ADME, organism-based.
Data set [12] can be described thus: Cmax in healthy human plasma at 750 mg after 24 hrs coadministered with 20 ml of antacid by HPLC-tandem mass spectrometry method. Further details: dose 750 mg. Type of data set: ADME, organism-based.
The test system of data set [13] is Homo sapiens. Briefly: Toxicity in healthy human assessed as serious adverse events at 750 mg coadministered with 20 ml of antacid. Type of data set: organism-based. Particulars: in vivo.
Data set [14] is filed under the species Homo sapiens. The data set can be described thus: Plasma concentration in healthy human plasma at 750 mg by HPLC-tandem mass spectrometry method. It counts as ADME, organism-based. Particulars: in vivo.
For data set [15], the system named is Homo sapiens. Briefly: Toxicity in healthy human assessed as gastrointestinal tract related toxicity at 750 mg coadministered with 20 ml of antacid. Type of data set: organism-based. Particulars: in vivo.
Data set [16] in a line: AUC (infinity) in healthy human plasma at 750 mg coadministered with 20 ml of antacid by HPLC-tandem mass spectrometry method. Type of data set: ADME, organism-based. Further details: dose 750 mg, time infinity.

A word on the Tmax: it is the time from dosing to the highest level. The term half-life denotes how long it takes for the measured level to halve. As usually defined, the Cmax is the maximum level reached in the sampled fluid or tissue. One may read the AUC(0-inf) as the area under the concentration-time curve extrapolated to infinity.

`CCc1nn(CCO)c(CC)c1Oc1cc(C#N)cc(C#N)c1` [LERSIVIRINE]: the Tmax in data set [1] came out at 5 h; in data set [11] it was 2 h. The Activity entry in the data set filed under Homo sapiens [2] was “Toxic”; in the data set listed under Homo sapiens [4], “Non-toxic”; in the data set filed under Homo sapiens [7], “Non-toxic”; in the data set with Homo sapiens [10], “Non-toxic”; in the data set with Homo sapiens [13] it was “Non-toxic”; with Homo sapiens [15], “Toxic”. Besides, the Cp in the data set on Homo sapiens [3] came out at 64.41 ng/mL; in the data set listed under Homo sapiens [14], 83.41 ng/mL. Moreover, the half-life was 6.91 h in [5] and 6.22 h in [6]. Also, the Cmax in data set [8] is 1520 ng/mL; in data set [12], 1450 ng/mL. Also, the AUC(0-inf) amounted to 11000 ng·h/mL in data set [9] and 11200 ng·h/mL in data set [16].
